Assay [1] has as its target T1, PDE3A catalytic domain (PDE3Acat) (Homo sapiens, UniProt Q14432).
T1 construct: made in house; host or cells: Sf9 insect cells (baculovirus, Bac-to-Bac / Gateway)
As to the kind of experiment: Phosphodiesterase inhibitory activity, PDE3 ([3H]cAMP, recombinant enzyme). Type of assay: biochemical. The conditions noted are these: 30° C., 20 minutes, read-out: IC50(μmol/L) PDE3.

The target in the next assay is T2, PDE4Bcat (Homo sapiens, UniProt Q07343).
T2 construct: made in house; host or cells: Sf9 insect cells (baculovirus, Bac-to-Bac / Gateway)
T2 sequence (Q07343 330-659 limits assumed): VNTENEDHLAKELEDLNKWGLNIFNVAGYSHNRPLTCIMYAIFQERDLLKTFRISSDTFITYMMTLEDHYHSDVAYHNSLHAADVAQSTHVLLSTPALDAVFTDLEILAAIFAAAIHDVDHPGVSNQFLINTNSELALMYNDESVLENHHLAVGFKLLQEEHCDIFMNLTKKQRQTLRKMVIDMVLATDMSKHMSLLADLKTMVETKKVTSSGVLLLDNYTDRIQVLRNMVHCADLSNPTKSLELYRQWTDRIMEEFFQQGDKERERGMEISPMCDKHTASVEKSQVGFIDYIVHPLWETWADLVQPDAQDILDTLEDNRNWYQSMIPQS
Nature of the assay: Phosphodiesterase inhibitory activity, PDE4 ([3H]cAMP, recombinant enzyme). Type of assay: biochemical. The conditions noted are these: 30° C., 20 minutes, read-out: IC50(μmol/L) PDE4.

Bounds are passed on as bounds.

T1 sequence (Q14432 674-1093 limits assumed): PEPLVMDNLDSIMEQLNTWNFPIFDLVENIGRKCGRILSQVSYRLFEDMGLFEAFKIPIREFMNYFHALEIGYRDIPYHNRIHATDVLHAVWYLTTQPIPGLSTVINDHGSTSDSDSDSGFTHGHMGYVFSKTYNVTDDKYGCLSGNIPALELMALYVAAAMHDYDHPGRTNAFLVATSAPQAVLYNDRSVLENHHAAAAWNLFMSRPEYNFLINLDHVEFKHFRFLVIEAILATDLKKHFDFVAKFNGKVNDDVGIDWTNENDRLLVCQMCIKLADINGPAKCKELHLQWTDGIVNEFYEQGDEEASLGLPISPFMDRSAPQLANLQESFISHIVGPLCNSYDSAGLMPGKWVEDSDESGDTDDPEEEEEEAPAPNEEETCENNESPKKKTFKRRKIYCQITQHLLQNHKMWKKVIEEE

Take `CCc1ccc2c(-c3ccc(=O)n(CCCCOc4ccc(C5=NNC(=O)CC5)cc4)n3)ccc(OC)c2n1` [Example 281, 6-(2-Ethyl-8-methoxyquinolin-5-yl)-2-[4-[4-(6-oxo-1,4,5,6-tetrahydropyridazin-3-yl)phenoxy]butyl]-2H-pyridazin-3-one]: the IC50 (in assay [1]; at PDE4Bcat) was 0.1 to 1 µmol/L each time.
Consider `CCc1ccc2c(-c3ccc(=O)n(CCCCOc4ccc(C5=NNC(=O)C5(C)C)cc4)n3)ccc(OC)c2n1` [Example 282, 6-(2-Ethyl-8-methoxyquinolin-5-yl)-2-[4-[4-(4,4-dimethyl-5-oxo-4,5-dihydro-1H-pyrazol-3-yl)phenoxy]butyl]-2H-pyridazin-3-one], for which the IC50 in assay [1] is not below 10 µmol/L; on PDE4Bcat it was 0.1 to 1 µmol/L.
Taken in the same sequence, the figures for `CCc1ccc2c(-c3ccc(=O)n(CCCCOc4ccc(C5=NNC(=O)CC5)cc4F)n3)ccc(OC)c2n1` [Example 284, 6-(2-Ethyl-8-methoxyquinolin-5-yl)-2-[4-[2-fluoro-4-(6-oxo-1,4,5,6-tetrahydropyridazin-3-yl)phenoxy]butyl]-2H-pyridazin-3-one] were less than 0.1 µmol/L and 0.1 to 1 µmol/L.
`CCc1ccc2c(-c3ccc(=O)n(CCCCOc4ccc(C5=NNC(=O)C5(C)C)cc4F)n3)ccc(OC)c2n1` [Example 285, 6-(2-Ethyl-8-methoxyquinolin-5-yl)-2-[4-[2-fluoro-4-(4,4-dimethyl-5-oxo-4,5-dihydro-1H-pyrazol-3-yl)phenoxy]butyl]-2H-pyridazin-3-one]: the IC50 (in assay [1]; at PDE4Bcat) was 1 to 10 µmol/L in each case.
For `CCc1ccc2c(-c3ccc(=O)n(CCCCOc4ccc(C5=NNC(=O)C5(C)C)cc4OC)n3)ccc(OC)c2n1` [Example 286, 6-(2-Ethyl-8-methoxyquinolin-5-yl)-2-[4-[2-methoxy-4-(4,4-dimethyl-5-oxo-4,5-dihydro-1H-pyrazol-3-yl)phenoxy]butyl]-2H-pyridazin-3-one], the results for the IC50 (in assay [1]; at PDE4Bcat) were not below 10 µmol/L and 1 to 10 µmol/L, respectively.
For `CCc1ccc2c(C3=NN(CCCCOc4ccc(C5=NNC(=O)C5(C)C)cc4F)C(=O)CC3C)ccc(OC)c2n1` (stereo not drawn) [Example 302, 6-(2-Ethyl-8-methoxyquinolin-5-yl)-5-methyl-2-[4-[2-fluoro-4-(4,4-dimethyl-5-oxo-4,5-dihydro-1H-pyrazol-3-yl)phenoxy]butyl]-4,5-dihydro-2H-pyridazin-3-one], in that order: 1 to 10 µmol/L and less than 0.1 µmol/L.
Taken in the same sequence, the figures for `COc1ccc(-c2ccc(=O)n(CCCCOc3ccc(C4=NNC(=O)C4(C)C)c(F)c3F)n2)c2nc(C(F)(F)F)nn12` [Example 306, 2-[4-[2,3-Difluoro-4-(4,4-dimethyl-5-oxo-4,5-dihydro-1H-pyrazol-3-yl)phenoxy]butyl]-6-(5-methoxy-2-trifluoromethyl-[1,2,4]triazolo[1,5-a]pyridin-8-yl)-2H-pyridazin-3-one] were 1 to 10 µmol/L and 1 to 10 µmol/L.
Taken in the same sequence, the figures for `COc1ccc(-c2ccc(=O)n(CCCCOc3ccc(C4=NNC(=O)CC4C)c(F)c3F)n2)c2sc(C(F)(F)F)nc12` (stereo not drawn) [Example 307, 2-[4-[2,3-Difluoro-4-(4-methyl-6-oxo-1,4,5,6-tetrahydropyridazin-3-yl)phenoxy]butyl]-6-(4-methoxy-2-trifluoromethylbenzothiazol-7-yl)-2H-pyridazin-3-one] were less than 0.1 µmol/L and less than 0.1 µmol/L.
As for `COc1ccc(-c2ccc(=O)n(CCCCOc3ccc(C4=NNC(=O)CC4)c(F)c3F)n2)c2sc(C(F)(F)F)nc12` [Example 308, 2-[4-[2,3-Difluoro-4-(6-oxo-1,4,5,6-tetrahydropyridazin-3-yl)phenoxy]butyl]-6-(4-methoxy-2-trifluoromethylbenzothiazol-7-yl)-2H-pyridazin-3-one], the IC50 (in assay [1]; at PDE4Bcat) was less than 0.1 µmol/L each time.
`COc1ccc(-c2ccc(=O)n(CCCCOc3ccc(C4=NNC(=O)C4(C)C)c(F)c3F)n2)c2sc(C(F)(F)F)nc12` [Example 309, 2-[4-[2,3-Difluoro-4-(4,4-dimethyl-5-oxo-4,5-dihydro-1H-pyrazol-3-yl)phenoxy]butyl]-6-(4-methoxy-2-trifluoromethylbenzothiazol-7-yl)-2H-pyridazin-3-one]: the IC50 (in assay [1]; on PDE4Bcat) was less than 0.1 µmol/L throughout.
Take `COc1ccc(C2=NN(CCCCOc3ccc(C4=NNC(=O)CC4C)cc3)C(=O)CC2C)c2cc(C(F)(F)F)oc12` (stereo not drawn) [Example 310]: the IC50 in assay [1] was 0.1 to 1 µmol/L; at PDE4Bcat, less than 0.1 µmol/L.
For `COc1ccc(C2=NN(CCCCOc3ccc(C4=NNC(=O)CC4C)cc3)C(=O)CC2C)c2cc(C(F)(F)F)sc12` (stereo not drawn) [Example 311], in that order: less than 0.1 µmol/L and 1 to 10 µmol/L.
Taken in the same sequence, the figures for `COc1ccc(C2=NN(CCCCOc3ccc(C4=NNC(=O)CC4C)cc3)C(=O)CC2C)c2sc(C(F)(F)F)nc12` (stereo not drawn) [Example 313, 6-(4-Methoxy-2-trifluoromethylbenzothiazol-7-yl)-5-methyl-2-[4-[4-(4-methyl-6-oxo-1,4,5,6-tetrahydropyridazin-3-yl)phenoxy]butyl]-4,5-dihydro-2H-pyridazin-3-one] were 0.1 to 1 µmol/L and less than 0.1 µmol/L.
Regarding `COc1ccc(-c2ccc(=O)n(CCCCOc3ccc(C4=NNC(=O)CC4C)cc3)n2)c2ccc(C(F)(F)F)nc12` (stereo not drawn) [Example 321, 6-(8-Methoxy-2-trifluoromethylquinolin-5-yl)-2-[4-[4-(4-methyl-6-oxo-1,4,5,6-tetrahydropyridazin-3-yl)phenoxy]butyl]-2H-pyridazin-3-one], the IC50 (in assay [1]; at PDE4Bcat) was 0.1 to 1 µmol/L each time.
Consider `CCc1ccc2c(-c3ccc(=O)n(CCOc4ccc(C5=NNC(=O)CC5C)c(F)c4F)n3)ccc(OC)c2n1` (stereo not drawn) [Example 324, 6-(2-Ethyl-8-methoxyquinolin-5-yl)-2-[2-[2,3-difluoro-4-(4-methyl-6-oxo-1,4,5,6-tetrahydropyridazin-3-yl)phenoxy]ethyl]-2H-pyridazin-3-one], for which the IC50 was less than 0.1 µmol/L in assay [1] and 0.1 to 1 µmol/L at PDE4Bcat.
Taken in the same sequence, the figures for `CCc1ccc2c(-c3ccc(=O)n(CCCOc4ccc(C5=NNC(=O)CC5C)c(F)c4F)n3)ccc(OC)c2n1` (stereo not drawn) [Example 325, 6-(2-Ethyl-8-methoxyquinolin-5-yl)-2-[3-[2,3-difluoro-4-(4-methyl-6-oxo-1,4,5,6-tetrahydropyridazin-3-yl)phenoxy]propyl]-2H-pyridazin-3-one] were 0.1 to 1 µmol/L and 0.1 to 1 µmol/L.
Take `CCc1ccc2c(-c3ccc(=O)n(CCCOc4ccc(C5=NNC(=O)CC5)c(F)c4F)n3)ccc(OC)c2n1` [Example 326, 6-(2-Ethyl-8-methoxyquinolin-5-yl)-2-[3-[2,3-difluoro-4-(6-oxo-1,4,5,6-tetrahydropyridazin-3-yl)phenoxy]propyl]-2H-pyridazin-3-one]: the IC50 (in assay [1]; at PDE4Bcat) was 1 to 10 µmol/L throughout.
In the case of `CCc1ccc2c(-c3ccc(=O)n(CCCOc4ccc(C5=NNC(=O)C5(C)C)c(F)c4F)n3)ccc(OC)c2n1` [Example 327, 6-(2-Ethyl-8-methoxyquinolin-5-yl)-2-[3-[2,3-difluoro-4-(4,4-dimethyl-5-oxo-4,5-dihydro-1H-pyrazol-3-yl)phenoxy]propyl]-2H-pyridazin-3-one], the IC50 in assay [1] was in the range of 1 to 10 µmol/L; at PDE4Bcat it was 0.1 to 1 µmol/L.
Taken in the same sequence, the figures for `COc1ccc(-c2ccc(=O)n(CCCCOc3ccc(C4=NNC(=O)CC4C)c(F)c3F)n2)c2cc(C(F)(F)F)sc12` (stereo not drawn) [Example 330, 2-[4-[2,3-Difluoro-4-(4-methyl-6-oxo-1,4,5,6-tetrahydropyridazin-3-yl)phenoxy]butyl]-6-(7-methoxy-2-trifluoromethylbenzo[b]thiophen-4-yl)-2H-pyridazin-3-one] were less than 0.1 µmol/L and 1 to 10 µmol/L.
On to `COc1ccc(-c2ccc(=O)n(CCCCOc3ccc(C4=NNC(=O)CC4)c(F)c3F)n2)c2cc(C(F)(F)F)sc12` [Example 331, 2-[4-[2,3-Difluoro-4-(6-oxo-1,4,5,6-tetrahydropyridazin-3-yl)phenoxy]butyl]-6-(7-methoxy-2-trifluoromethylbenzo[b]thiophen-4-yl)-2H-pyridazin-3-one], for which the IC50 in assay [1] was less than 0.1 µmol/L; at PDE4Bcat, 1 to 10 µmol/L.
For `COc1ccc(-c2ccc(=O)n(CCCCOc3ccc(C4=NNC(=O)C4(C)C)c(F)c3F)n2)c2cc(C(F)(F)F)sc12` [Example 332, 2-[4-[2,3-Difluoro-4-(4,4-dimethyl-5-oxo-4,5-dihydro-1H-pyrazol-3-yl)phenoxy]butyl]-6-(7-methoxy-2-trifluoromethylbenzo[b]thiophen-4-yl)-2H-pyridazin-3-one], the IC50 in assay [1] lay within 0.1 to 1 µmol/L; on PDE4Bcat, 1 to 10 µmol/L.
In the case of `CCc1nc2c(OC)ccc(-c3ccc(=O)n(CCCCOc4ccc(C5=NNC(=O)CC5)c(F)c4F)n3)c2o1` [Example 333, 6-(2-Ethyl-4-methoxybenzooxazol-7-yl)-2-[4-[2,3-difluoro-4-(6-oxo-1,4,5,6-tetrahydropyridazin-3-yl)phenoxy]butyl]-2H-pyridazin-3-one], the figures for the IC50 (in assay [1]; at PDE4Bcat) were less than 0.1 µmol/L and 0.1 to 1 µmol/L, respectively.
For `CCc1nc2c(OC)ccc(-c3ccc(=O)n(CCCCOc4ccc(C5=NNC(=O)CC5C)c(F)c4F)n3)c2o1` (stereo not drawn) [Example 334, 6-(2-Ethyl-4-methoxybenzooxazol-7-yl)-2-[4-[2,3-difluoro-4-(4-methyl-6-oxo-1,4,5,6-tetrahydropyridazin-3-yl)phenoxy]butyl]-2H-pyridazin-3-one], in that order: less than 0.1 µmol/L and 0.1 to 1 µmol/L.
In the case of `CCc1nc2c(OC)ccc(-c3ccc(=O)n(CCCCOc4ccc(C5=NNC(=O)C5(C)C)c(F)c4F)n3)c2o1` [Example 335, 6-(2-Ethyl-4-methoxybenzooxazol-7-yl)-2-[4-[2,3-difluoro-4-(4,4-dimethyl-5-oxo-4,5-dihydro-1H-pyrazol-3-yl)phenoxy]butyl]-2H-pyridazin-3-one], the IC50 (in assay [1]; at PDE4Bcat) was 0.1 to 1 µmol/L each time.

The values above are taken from US20100160335A1, “PYRIDAZINONE DERIVATIVE AND PDE INHIBITOR CONTAINING THE SAME AS ACTIVE INGREDIENT” (KYORIN PHARMACEUTICAL CO., LTD., priority 2007, published 2010).
